Read-outs that look alike come from different tables or passages of the source. Each block holds one compound with its values, some of them ahead of it.
Legend:
Assay in all cases: biochemical
Design in all cases: DiscoveRx KINOMEscan active site-directed competition binding; percent of control kinase bound to immobilised ligand
[1] = biological target: T1, RIPK4 (Homo sapiens, UniProt P57078)
T1 sequence (P57078 1-832): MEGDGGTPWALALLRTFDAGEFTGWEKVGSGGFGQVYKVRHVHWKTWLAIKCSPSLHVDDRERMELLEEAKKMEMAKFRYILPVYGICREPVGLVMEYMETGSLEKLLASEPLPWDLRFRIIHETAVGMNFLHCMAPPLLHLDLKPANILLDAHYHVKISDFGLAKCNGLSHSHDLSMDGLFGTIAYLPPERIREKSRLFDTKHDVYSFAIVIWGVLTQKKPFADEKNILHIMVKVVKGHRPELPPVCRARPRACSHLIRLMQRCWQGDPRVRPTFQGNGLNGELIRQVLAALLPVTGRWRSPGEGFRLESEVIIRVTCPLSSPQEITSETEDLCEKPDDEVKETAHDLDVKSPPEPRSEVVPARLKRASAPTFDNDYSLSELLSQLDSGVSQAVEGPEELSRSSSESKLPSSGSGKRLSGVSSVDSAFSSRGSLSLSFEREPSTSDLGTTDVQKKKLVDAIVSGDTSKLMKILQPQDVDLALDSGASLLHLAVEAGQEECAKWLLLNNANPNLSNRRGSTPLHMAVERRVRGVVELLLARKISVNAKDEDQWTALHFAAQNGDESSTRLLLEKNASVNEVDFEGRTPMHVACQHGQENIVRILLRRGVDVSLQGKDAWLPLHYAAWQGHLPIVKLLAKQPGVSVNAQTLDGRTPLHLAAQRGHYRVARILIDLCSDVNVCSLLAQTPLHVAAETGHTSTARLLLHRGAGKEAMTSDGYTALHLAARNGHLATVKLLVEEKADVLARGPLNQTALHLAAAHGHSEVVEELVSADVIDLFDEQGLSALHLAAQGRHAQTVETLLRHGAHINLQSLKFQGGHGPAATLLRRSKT

[2] = biological target: T2, OSR1 (Homo sapiens, UniProt O95747)
T2 construct: gene OXSR1
T2 sequence (O95747 whole entry): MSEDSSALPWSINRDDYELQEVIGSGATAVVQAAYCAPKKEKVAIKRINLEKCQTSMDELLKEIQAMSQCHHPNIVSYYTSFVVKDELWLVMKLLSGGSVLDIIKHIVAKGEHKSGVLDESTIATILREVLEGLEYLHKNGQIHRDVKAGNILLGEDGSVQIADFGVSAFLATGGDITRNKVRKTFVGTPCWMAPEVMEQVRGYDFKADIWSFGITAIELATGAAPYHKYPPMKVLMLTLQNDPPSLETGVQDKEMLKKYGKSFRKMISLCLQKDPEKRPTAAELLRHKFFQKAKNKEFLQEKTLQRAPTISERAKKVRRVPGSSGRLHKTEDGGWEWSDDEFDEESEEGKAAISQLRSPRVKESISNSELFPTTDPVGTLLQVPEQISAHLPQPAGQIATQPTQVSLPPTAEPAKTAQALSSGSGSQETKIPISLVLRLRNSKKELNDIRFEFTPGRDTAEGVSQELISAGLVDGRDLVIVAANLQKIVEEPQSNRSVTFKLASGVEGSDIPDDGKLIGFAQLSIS

[3] = biological target: T3, PDPK1 (Homo sapiens, UniProt O15530)
T3 sequence (O15530 1-556): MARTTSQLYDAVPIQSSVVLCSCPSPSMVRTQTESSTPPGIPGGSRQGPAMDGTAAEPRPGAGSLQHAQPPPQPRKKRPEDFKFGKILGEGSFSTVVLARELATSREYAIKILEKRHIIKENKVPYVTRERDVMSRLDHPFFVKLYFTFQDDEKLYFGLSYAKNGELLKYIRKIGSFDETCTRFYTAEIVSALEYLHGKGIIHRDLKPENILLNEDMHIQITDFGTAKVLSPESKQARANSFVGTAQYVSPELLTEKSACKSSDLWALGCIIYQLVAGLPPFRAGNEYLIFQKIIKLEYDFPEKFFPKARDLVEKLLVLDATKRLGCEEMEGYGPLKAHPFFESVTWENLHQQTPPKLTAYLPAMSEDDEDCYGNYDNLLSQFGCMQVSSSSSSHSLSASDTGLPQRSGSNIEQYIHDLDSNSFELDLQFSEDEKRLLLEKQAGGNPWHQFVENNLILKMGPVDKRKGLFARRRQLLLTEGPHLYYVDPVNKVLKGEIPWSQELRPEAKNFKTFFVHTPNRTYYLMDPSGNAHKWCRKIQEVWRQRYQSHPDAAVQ

[4] = biological target: T4, JNK1 (Homo sapiens, UniProt P45983)
T4 construct: gene MAPK8
T4 sequence (P45983 whole entry): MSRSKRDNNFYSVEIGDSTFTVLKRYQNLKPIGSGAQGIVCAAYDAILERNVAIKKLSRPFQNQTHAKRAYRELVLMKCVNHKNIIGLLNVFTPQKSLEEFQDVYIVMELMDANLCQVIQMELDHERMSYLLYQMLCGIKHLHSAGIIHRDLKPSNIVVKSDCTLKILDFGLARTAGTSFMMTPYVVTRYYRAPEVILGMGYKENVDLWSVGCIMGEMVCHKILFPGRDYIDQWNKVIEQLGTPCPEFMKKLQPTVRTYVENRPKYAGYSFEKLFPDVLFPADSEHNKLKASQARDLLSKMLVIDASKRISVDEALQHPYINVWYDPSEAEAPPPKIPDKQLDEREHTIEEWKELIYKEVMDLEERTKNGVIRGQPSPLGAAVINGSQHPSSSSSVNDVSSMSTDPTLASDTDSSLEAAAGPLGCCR

[5] = biological target: T5, ABL1(H396P)-phosphorylated (Homo sapiens, UniProt P00519, H396P)
T5 construct: phosphorylated

[6] = biological target: STK39 (Homo sapiens, UniProt Q9UEW8)
[7] = biological target: TRPM6 (Homo sapiens, UniProt Q9BX84)
[8] = biological target: T6, LOK (Homo sapiens, UniProt O94804)
T6 construct: gene STK10
T6 sequence (O94804 whole entry): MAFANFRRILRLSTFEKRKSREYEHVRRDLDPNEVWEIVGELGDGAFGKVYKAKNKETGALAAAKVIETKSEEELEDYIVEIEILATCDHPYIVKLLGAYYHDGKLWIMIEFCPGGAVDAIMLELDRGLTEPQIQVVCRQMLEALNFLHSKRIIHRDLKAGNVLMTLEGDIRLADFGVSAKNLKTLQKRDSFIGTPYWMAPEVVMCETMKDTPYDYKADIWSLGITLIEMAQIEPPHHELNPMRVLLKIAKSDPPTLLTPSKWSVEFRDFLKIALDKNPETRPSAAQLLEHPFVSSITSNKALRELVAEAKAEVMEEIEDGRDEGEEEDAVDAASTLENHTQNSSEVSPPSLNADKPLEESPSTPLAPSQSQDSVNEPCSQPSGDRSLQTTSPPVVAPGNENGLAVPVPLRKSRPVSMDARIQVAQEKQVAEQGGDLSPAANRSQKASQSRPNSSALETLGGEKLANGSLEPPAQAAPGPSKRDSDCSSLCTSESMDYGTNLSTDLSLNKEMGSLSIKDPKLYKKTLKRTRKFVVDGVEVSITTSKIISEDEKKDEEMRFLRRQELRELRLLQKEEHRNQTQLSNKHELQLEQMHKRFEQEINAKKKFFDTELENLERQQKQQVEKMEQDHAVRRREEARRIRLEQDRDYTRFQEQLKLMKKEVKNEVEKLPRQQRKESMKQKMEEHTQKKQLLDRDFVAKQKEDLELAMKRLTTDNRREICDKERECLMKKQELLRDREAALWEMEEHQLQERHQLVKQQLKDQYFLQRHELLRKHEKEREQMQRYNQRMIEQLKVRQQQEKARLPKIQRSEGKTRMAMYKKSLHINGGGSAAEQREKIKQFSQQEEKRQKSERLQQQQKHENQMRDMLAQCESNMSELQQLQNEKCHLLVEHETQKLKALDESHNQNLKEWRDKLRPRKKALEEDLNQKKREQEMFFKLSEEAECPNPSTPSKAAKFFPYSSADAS

[9] = biological target: ALK(L1196M) (Homo sapiens, UniProt Q9UM73, L1196M)
Sequence of ALK(L1196M) (Q9UM73 whole entry L1196M): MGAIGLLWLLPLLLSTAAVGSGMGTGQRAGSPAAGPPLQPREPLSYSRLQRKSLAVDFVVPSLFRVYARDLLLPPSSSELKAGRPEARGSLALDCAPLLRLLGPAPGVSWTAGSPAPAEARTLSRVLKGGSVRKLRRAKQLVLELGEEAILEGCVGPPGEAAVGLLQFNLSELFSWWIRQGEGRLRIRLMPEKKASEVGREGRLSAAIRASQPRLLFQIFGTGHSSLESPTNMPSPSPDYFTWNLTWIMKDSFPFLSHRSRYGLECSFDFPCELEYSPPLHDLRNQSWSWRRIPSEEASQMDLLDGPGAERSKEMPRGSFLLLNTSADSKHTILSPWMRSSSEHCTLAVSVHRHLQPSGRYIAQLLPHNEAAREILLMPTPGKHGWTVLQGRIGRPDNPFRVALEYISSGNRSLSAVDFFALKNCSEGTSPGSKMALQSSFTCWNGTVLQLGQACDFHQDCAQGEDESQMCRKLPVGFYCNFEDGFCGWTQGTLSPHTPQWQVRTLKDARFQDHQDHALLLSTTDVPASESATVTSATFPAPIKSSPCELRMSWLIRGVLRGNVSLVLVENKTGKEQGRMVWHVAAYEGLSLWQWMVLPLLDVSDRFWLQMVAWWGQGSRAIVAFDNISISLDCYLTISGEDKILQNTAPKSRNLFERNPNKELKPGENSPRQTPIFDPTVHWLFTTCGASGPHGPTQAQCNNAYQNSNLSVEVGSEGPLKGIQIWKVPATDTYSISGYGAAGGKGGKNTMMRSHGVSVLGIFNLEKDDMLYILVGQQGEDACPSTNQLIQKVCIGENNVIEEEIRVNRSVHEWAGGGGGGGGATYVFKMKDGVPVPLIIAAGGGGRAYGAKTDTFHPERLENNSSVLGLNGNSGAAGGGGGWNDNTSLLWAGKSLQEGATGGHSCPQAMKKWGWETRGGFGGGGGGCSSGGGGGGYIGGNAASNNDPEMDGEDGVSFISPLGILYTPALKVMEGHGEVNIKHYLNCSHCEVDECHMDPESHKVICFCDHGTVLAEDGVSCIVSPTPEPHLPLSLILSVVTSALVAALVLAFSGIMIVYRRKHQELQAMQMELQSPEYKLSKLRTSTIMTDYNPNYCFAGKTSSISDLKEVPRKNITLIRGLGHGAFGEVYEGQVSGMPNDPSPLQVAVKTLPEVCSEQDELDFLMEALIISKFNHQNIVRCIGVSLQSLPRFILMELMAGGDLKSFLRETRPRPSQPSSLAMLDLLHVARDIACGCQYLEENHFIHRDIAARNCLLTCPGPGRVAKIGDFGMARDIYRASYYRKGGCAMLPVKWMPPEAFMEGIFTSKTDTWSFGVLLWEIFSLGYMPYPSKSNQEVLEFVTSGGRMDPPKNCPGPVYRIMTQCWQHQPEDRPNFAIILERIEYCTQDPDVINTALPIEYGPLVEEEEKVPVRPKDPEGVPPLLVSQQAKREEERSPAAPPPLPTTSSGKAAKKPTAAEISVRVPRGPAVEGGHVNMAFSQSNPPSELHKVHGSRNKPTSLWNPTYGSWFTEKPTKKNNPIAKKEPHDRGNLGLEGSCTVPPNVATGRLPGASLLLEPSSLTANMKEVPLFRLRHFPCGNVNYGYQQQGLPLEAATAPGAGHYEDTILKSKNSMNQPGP

[10] = biological target: CAMKK2 (Homo sapiens, UniProt Q96RR4)
Sequence of CAMKK2 (Q96RR4 whole entry): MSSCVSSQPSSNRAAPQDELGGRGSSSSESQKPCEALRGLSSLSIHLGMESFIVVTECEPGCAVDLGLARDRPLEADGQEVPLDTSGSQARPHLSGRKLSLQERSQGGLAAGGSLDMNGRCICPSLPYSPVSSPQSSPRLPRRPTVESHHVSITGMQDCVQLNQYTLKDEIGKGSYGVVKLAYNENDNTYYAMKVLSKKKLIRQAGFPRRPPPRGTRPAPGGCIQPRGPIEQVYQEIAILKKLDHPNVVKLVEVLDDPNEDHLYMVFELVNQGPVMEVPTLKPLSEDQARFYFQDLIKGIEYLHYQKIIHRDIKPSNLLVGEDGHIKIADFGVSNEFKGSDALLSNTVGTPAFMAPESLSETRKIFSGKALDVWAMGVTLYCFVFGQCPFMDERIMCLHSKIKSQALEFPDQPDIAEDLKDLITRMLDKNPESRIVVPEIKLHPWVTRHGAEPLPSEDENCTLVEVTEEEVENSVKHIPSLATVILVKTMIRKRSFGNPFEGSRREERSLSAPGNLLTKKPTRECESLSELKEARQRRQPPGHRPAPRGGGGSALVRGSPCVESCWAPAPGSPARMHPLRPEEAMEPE

[11] = read-out: Niraparib (MK-4827) / %Ctrl @ 10000nM
[12] = read-out: Rucaparib / %Ctrl @ 10000nM, binding competition, % of control
[13] = read-out: Olaparib / %Ctrl @ 10000nM
[14] = read-out: Talazoparib (BMN 673) / %Ctrl @ 10000nM

Structure (SMILES): NC(=O)c1cccc2cn(-c3ccc([C@@H]4CCCNC4)cc3)nc12 [Niraparib]
percent of control binding at 10 µM [1, 11]: 81%
percent of control binding at 10 µM [2, 11]: 98%
percent of control binding at 10 µM [3, 11]: 80%
percent of control binding at 10 µM [4, 11]: 85%
percent of control binding at 10 µM [5, 11]: 58%
percent of control binding at 10 µM [6, 11]: 70%
percent of control binding at 10 µM [7, 11]: 71%
percent of control binding at 10 µM [8, 11]: 86%
percent of control binding at 10 µM [9, 11]: 81%
percent of control binding at 10 µM [10, 11]: 81%

percent of control binding at 10 µM [1, 12]: 75%
percent of control binding at 10 µM [2, 12]: 71%
percent of control binding at 10 µM [3, 12]: 97%
percent of control binding at 10 µM [4, 12]: 65%
percent of control binding at 10 µM [5, 12]: 80%
percent of control binding at 10 µM [6, 12]: 73%
percent of control binding at 10 µM [7, 12]: 77%
percent of control binding at 10 µM [8, 12]: 100%
percent of control binding at 10 µM [9, 12]: 83%
percent of control binding at 10 µM [10, 12]: 70%
Structure (SMILES): CNCc1ccc(-c2[nH]c3cc(F)cc4c3c2CCNC4=O)cc1 [Rucaparib]

percent of control binding at 10 µM [1, 13]: 81%
percent of control binding at 10 µM [2, 13]: 88%
percent of control binding at 10 µM [3, 13]: 100%
percent of control binding at 10 µM [4, 13]: 98%
percent of control binding at 10 µM [5, 13]: 83%
percent of control binding at 10 µM [6, 13]: 92%
percent of control binding at 10 µM [7, 13]: 84%
percent of control binding at 10 µM [8, 13]: 96%
percent of control binding at 10 µM [9, 13]: 83%
percent of control binding at 10 µM [10, 13]: 99%
Structure (SMILES): O=C(c1cc(Cc2n[nH]c(=O)c3ccccc23)ccc1F)N1CCN(C(=O)C2CC2)CC1 [Olaparib]

percent of control binding at 10 µM [1, 14]: 69%
percent of control binding at 10 µM [2, 14]: 90%
percent of control binding at 10 µM [3, 14]: 85%
percent of control binding at 10 µM [4, 14]: 79%
percent of control binding at 10 µM [5, 14]: 92%
percent of control binding at 10 µM [6, 14]: 100%
percent of control binding at 10 µM [7, 14]: 100%
percent of control binding at 10 µM [8, 14]: 100%
percent of control binding at 10 µM [9, 14]: 100%
percent of control binding at 10 µM [10, 14]: 97%
Structure (SMILES): Cn1ncnc1[C@H]1c2n[nH]c(=O)c3cc(F)cc(c23)N[C@@H]1c1ccc(F)cc1 [Talazoparib]

From PMC7026418, “The kinase polypharmacology landscape of clinical PARP inhibitors” (Scientific Reports, 2020)
